A short description of the data set: solvent given as SMILES.

Regarding `CCCCCCCCCCCC#CC#CCCCCCCCCCN1C(=O)c2ccc3c4ccc5c6c(ccc(c7ccc(c2c37)C1=O)c64)C(=O)N(CCCCCCCCCC#CC#CCCCCCCCCCCCC)C5=O`, the absorption maximum (in ClC(Cl)Cl) was 526 nm.

In the case of `COc1cccc(/C=C/c2ccccc2)c1`, the absorption maximum (in CC#N) is 295 nm.

Turning to `Cc1ccc2nc3c(=O)[nH]c(=O)[nH]c3nc2c1`, the absorption maximum is 370 nm (in CC#N) and 368 nm (in ClCCCl).

As to `COc1ccc(-c2cc3c(s2)c(C(C)=O)cc(=O)n3C)cc1`, the absorption maximum reads like this: (in CC#N) 412 nm; (in ClCCl) 418 nm.

Consider `CCn1c2ccccc2c2cc(/C=C/c3cccc(/C=C/c4ccc5c(c4)c4ccccc4n5CC)[n+]3CCCS(=O)(=O)[O-])ccc21`, for which the absorption maximum reads like this: (in C1CCOC1) 460 nm; (in CC#N) 454 nm; (in CC(C)=O) 458 nm; (in Cc1ccccc1) 453 nm.

In turn, `Cc1c(C)n2c(COC(=O)c3ccccc3O)c(C)c(=O)n2c1=O` came in with an absorption maximum (in CCO) of 379 nm.

`c1cc2ccc3ccc(OP4(Oc5ccc6ccc7cccc8ccc5c6c78)=NP(Oc5ccc6ccc7cccc8ccc5c6c78)(Oc5ccc6ccc7cccc8ccc5c6c78)=NP(Oc5ccc6ccc7cccc8ccc5c6c78)(Oc5ccc6ccc7cccc8ccc5c6c78)=N4)c4ccc(c1)c2c34`: the absorption maximum (in ClCCl) is listed as 343 nm.

For the molecule `Cc1ccc(N2C(c3ccccc3N(C)C)=NC(c3ccccc3)C2c2ccccc2)cc1` (configuration not stated), the absorption maximum (in Cc1ccccc1) came to 275 nm.

For `CCCCCCCCOc1ccc(C2=C3C(C)=C(C#Cc4ccc(B(c5c(C)cc(C)cc5C)c5c(C)cc(C)cc5C)cc4)C(C)=[N+]3[B-](F)(F)n3c(C)c(C#Cc4ccc(B(c5c(C)cc(C)cc5C)c5c(C)cc(C)cc5C)cc4)c(C)c32)cc1`, the absorption maximum is, setting by setting: (in CC#N) 568.51 nm; (in CCCCCC) 580.18 nm; (in ClCCl) 576 nm.

Under “in ClCCl”, `CC(C)(C)NC(=O)c1ccc(-c2ccccc2)c2ccc3c4ccccc4c4ccccc4c3c12` gave an absorption maximum of 336 nm.

In turn, `F[B-]1(F)n2c(-c3ccccc3)cc(-c3ccccn3)c2N=C2C(c3ccccn3)=CC(c3ccccc3)=[N+]21` registered an absorption maximum (in CC#N) of 655 nm.

In the case of `COc1ccc(-c2nnc(-c3cc(-n4c5ccccc5c5ccccc54)c(-n4c5ccccc5c5ccccc54)cc3-c3nnc(-c4ccc(OC)cc4)o3)o2)cc1`, the absorption maximum (in ClCCl) is 353 nm.

As for `O=Cc1ccc(Oc2ccc3c4c(cccc24)C(=O)N(CCO)C3=O)cc1`, the absorption maximum (in ClC(Cl)Cl) worked out at 355 nm.

Consider `CC1(C)C(/C=C/C2=C(Cl)C(=C/C=C3/N(CCCCCC(=O)O)c4ccccc4C3(C)C)/CCC2)=[N+](CCCCCC(=O)O)c2ccccc21`, for which, for the setting “in CO”, the absorption maximum is 782 nm.

Where the note is “in C1CCOC1”, `CCC1(CC)c2cc(Br)ccc2-c2c1c1c(c3c2C(CC)(CC)c2cc(-c4cccs4)ccc2-3)C(CC)(CC)c2cc(-c3cccs3)ccc2-1` gave an absorption maximum of 338 nm.

Take `CCCCCCOc1cc(C=C2C(=O)c3ccccc3C2=O)c(OCCCCCC)cc1C=C1C(=O)c2ccccc2C1=O`: under “in ClCCl”, the absorption maximum is 512 nm.

In the case of `CC(C)(C)[Si](C)(C)c1cccc2ccccc12`, the absorption maximum (in C1CCCCC1) worked out at 295 nm.

Where the note is “in ClCCl”, `O=Cc1ccc(C2=Cc3ccccc3P2(=O)c2ccccc2)cc1` (configuration not stated) yielded an absorption maximum of 357 nm.

In turn, `CC(C)[Si](C#Cc1c2ccccc2c(C#C[Si](C(C)C)(C(C)C)C(C)C)c2nc3c(ccc4ccccc43)nc12)(C(C)C)C(C)C` had an absorption maximum (in CCCCCC) of 544 nm.

With `CC1(C)Cc2c(c3ccccc3c3nc4ccccc4nc23)O1`, the absorption maximum stood at 456 nm (in C1CCCCC1); 459.98 nm (in C1CCOC1); 457.04 nm (in CN(C)C=O); 458.09 nm (in CO); 459.98 nm (in ClC(Cl)Cl); 458.09 nm (in c1ccccc1).

As to `Cc1cc(=O)oc2c3c4c(cc12)CCCN4CCC3`, the absorption maximum runs as follows: (in C1CCCCC1) 361 nm; (in CC#N) 380 nm; (in CCO) 387 nm; (in O) 396 nm.

As for `CN(C)c1ccc2nc(/C=C/c3cc4c5c(c3)CCCN5CCC4)c(=O)oc2c1`, the absorption maximum reads like this: (in C1CCCCC1) 487 nm; (in C1COCCO1) 495.5 nm; (in CC#N) 507.5 nm; (in CC(C)=O) 507 nm; (in CCCCCCC) 483 nm; (in CCO) 513 nm. For the same molecule, the absorption maximum is listed as 501 nm (in CCOC(C)=O); 516 nm (in CN(C)C=O); 522.5 nm (in CS(C)=O); 505.5 nm (in Cc1ccccc1); 517 nm (in ClC(Cl)Cl); 514.5 nm (in ClCCl).

For the molecule `[O-][n+]1c(/C=C/c2ccccc2)nc(Nc2ccccc2)c2c1CCCC2`, for the setting “in ClCCl”, the absorption maximum is recorded as 416 nm.

Regarding `COc1cc2c(cc1OC)C1=C[C@H](c3ccccc3)C3(C(C(=O)O[C@@H]4C[C@H]5CC[C@@H]4C5)=C(C(=O)O[C@H]4C[C@@H]5CC[C@H]4C5)N1CC2)c1ccccc1-c1ccccc13`, the absorption maximum (in ClCCl) was found to be 314 nm.

`Cc1ccc(-c2nc3sc4ccccc4c3s2)cc1`: for the setting “in CS(C)=O”, the absorption maximum worked out at 349 nm.

Under “in ClCCl”, `Cc1cc(-c2cccc3ccccc23)cc(C)[o+]1` came in with an absorption maximum of 438 nm.

In turn, `c1ccc(C2=C(c3ccccn3)[Si](c3ccccc3)(c3ccccc3)c3ccccc32)cc1` returned an absorption maximum (in ClCCl) of 339 nm.

Take `CCOC(=O)COc1ccc(/C=C/C2=C3c4ccccc4C(c4[nH]c(C)cc4C)=[N+]3[B-](F)(F)n3c(/C=C/c4ccc(OCC(=O)OCC)cc4)cc(C)c32)cc1`: the absorption maximum by setting is: (in C1CCOC1) 676 nm; (in CC#N) 667 nm; (in CCCCCC) 674 nm; (in CO) 668 nm; (in Cc1ccccc1) 683 nm; (in ClCCl) 676 nm.

With `CCCCCCn1c2cc(C=O)sc2c2sc3c(sc4c5sc(C=O)cc5n(CCCCCC)c43)c21`, the absorption maximum (in ClCCl) was found to be 468 nm.

`CCC1=C(C)C2=C(/C=C/Sc3ccccc3)c3c(C)c(CC)c(C)n3[B-](F)(F)[N+]2=C1C` returned an absorption maximum (in ClCCl) of 528 nm.

`COc1ccc(N(c2ccc(/C=C(\C)c3ccccc3)cc2)c2ccc(/C=C(\C)c3ccccc3)cc2)cc1`: under “in Cc1ccccc1”, the absorption maximum turned out to be 364 nm.

The molecule `c1cc2ccc3sc4ccc5cccc6c(c1)c2c3c4c56` yielded an absorption maximum (in ClC(Cl)Cl) of 412 nm.

Turning to `N#CC=C(c1ccc(N2c3ccccc3Oc3ccccc32)cc1)c1ccc(N2c3ccccc3Oc3ccccc32)cc1`, the absorption maximum (in Cc1ccccc1) was 405 nm.

As for `N#CSC1=CC2=C(c3ccccc3)c3cc(SC#N)c(N4CCOCC4)n3[B-](F)(F)[N+]2=C1N1CCOCC1`, the absorption maximum runs as follows: (in CC#N) 588 nm; (in CCCCCC) 599 nm; (in CCOC(C)=O) 593 nm; (in CO) 585 nm; (in ClCCl) 596 nm.

`COc1ccc(C2=c3sc(-c4ccc(OC)cc4)c(-c4ccc(OC)cc4)c3=[N+]3C2=Nc2c(-c4ccc(OC)cc4)c4sc(-c5ccc(OC)cc5)c(-c5ccc(OC)cc5)c4n2[B-]3(F)F)cc1` registered an absorption maximum (in ClC(Cl)Cl) of 784 nm.

With `CC(=O)c1c2c(c(C(C)=O)c3c1OC(CC(=O)O)O3)OCO2`, where the note is “in CC#N”, the absorption maximum was 433 nm.

For `O=C(O)CCCCCn1c2ccccc2c(=O)c2ccccc21`, under “in O”, the absorption maximum is 410 nm.

The values above are taken from the Deep4Chem optical property database.
